{"source": "patent US20180116993A1", "about": "“MODULATORS OF FARNESOID X RECEPTOR AND METHODS FOR THE USE THEREOF” (XIAMEN UNIVERSITY, priority 2015, published 2018)", "key": {"[1]": {"tested_on": "db/db mice", "experiment": "Hepatic triglyceride, liver histology, serum ALT and ALP in high-fat diet fed db/db mice", "type": "in vivo, mouse", "settings": "10 mg/kg once daily for 10 days", "procedure": "Liver tissues fixed in 4% paraformaldehyde in example 5 were performed for H&E staining by standard procedures. Liver tissues fixed in 4% paraformaldehyde were embedded in optimum cutting temperature compound (OCT), and cryosectioned. Frozen liver sections were stained with 0.3% oil red O according to standard procedures.\nThe triglyceride levels in liver tissues from mice treated with compounds were analyzed using Tissue triglyceride assay kit (Applygen, Beijing, China).\nAlkaline Phosphatase (ALP) is a marker of cholestasis. Cholestasis can be suspected when there is an elevation of ALP enzymes. In fact, greater than 90% of patients with bile stasis will have an elevated alkaline phosphatase. […] The aminotransferase is used to evaluate the presence of hepatitis and may be elevated in cholestasis or with common bile duct obstruction. In this example, 8-10 week age db/db mice were fed with high-fat diet and treated with 10 mg/kg of compounds once daily for 10 days as in Example 5. The activities of serum ALP and ALT were analyzed using ALP kit and ALT kit, respectively (Nanjing Jiancheng Engineering Institute, China)."}, "[2]": {"molecular_target": "T1, FXR ligand binding domain (LBD) (Homo sapiens, UniProt Q96RI1)", "T1 construct": "made in house", "T1 sequence (Q96RI1 262-486 limits assumed)": "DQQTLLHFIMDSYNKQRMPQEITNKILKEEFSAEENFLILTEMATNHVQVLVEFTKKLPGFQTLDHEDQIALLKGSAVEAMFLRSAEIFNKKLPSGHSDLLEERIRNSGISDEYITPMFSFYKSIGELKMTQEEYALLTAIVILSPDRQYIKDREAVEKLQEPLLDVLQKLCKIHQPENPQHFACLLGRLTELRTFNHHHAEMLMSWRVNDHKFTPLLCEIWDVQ", "experiment": "AlphaScreen assay: FXR LBD recruitment of coregulator peptide motifs (SRC2-3, SRC1-2)", "type": "biochemical", "settings": "Table 2", "procedure": "In search of novel ligands for FXR, we used FXR ligand binding domain (LBD) as a bait to screen chemical libraries based on AlphaScreen biochemical assay, which determines the efficacy of small molecules in influencing binding affinity of FXR with coregulator peptides (see e.g., Jin et al., (2013) Nature communications 4, 1937).\nThe binding of the cofactor peptide motifs to FXR ligand binding domain (LBD) in response to ligands was determined by AlphaScreen assays using a hexahistidine detection kit from Perkins-Elmer. The FXR LBD protein was purified as described previously (see e.g., Jin et al., (2013) Nature communications 4, 1937). The experiments were conducted with approximately 20-40 nM receptor LBD and 20 nM biotinylated cofactor peptides in the presence of 5 μg/ml donor and acceptor beads in a buffer containing 50 mM MOPS, 50 mM NaF, 0.05 mM CHAPS, and 0.1 mg/ml bovine serum albumin, all adjusted to a pH of 7.4."}, "[3]": {"tested_on": "human hepatoma HepG2 cells", "experiment": "MTT cell viability assay, HepG2", "type": "cell-based", "settings": "48 h, read-out: Cell viability as a percentage of the cells treated with DMSO, HepG2", "excerpt": "(§1) The MTT assay is a colorimetric assay for assessing cell metabolic activity. It is widely used in high-throughput screening of antitumor drugs due to its high sensitivity and economical features. In this example, MTT was used to detect the inhibitory effects of compounds on various cancer cell lines. Cancer cells including human colorectal adenocarcinoma HCT15 cells, RA-resistant human colon cancer HCT116 cells, human cervical carcinoma Hela cells, human hepatoma HepG2 cells and human breast cancer MCF7 cells were cultured in DMEM medium containing 10% fetal bovine serum. 20 uM or 40 uM of compounds were administered to treat cells, cell viability is detected by MTT assay and expressed as a percentage of the cells treated with DMSO (Table 4)."}, "[4]": {"tested_on": "RA-resistant human colon cancer HCT116 cells", "experiment": "MTT cell viability assay, HCT116", "type": "cell-based", "settings": "48 h, read-out: Cell viability as a percentage of the cells treated with DMSO, HCT116", "excerpt": "as §1"}, "[5]": {"tested_on": "human colorectal adenocarcinoma HCT15 cells", "experiment": "MTT cell viability assay, HCT15", "type": "cell-based", "settings": "48 h, read-out: Cell viability as a percentage of the cells treated with DMSO, HCT15", "excerpt": "as §1"}, "[6]": {"tested_on": "human breast cancer MCF7 cells", "experiment": "MTT cell viability assay, MCF-7", "type": "cell-based", "settings": "48 h, read-out: Cell viability as a percentage of the cells treated with DMSO, MCF-7", "excerpt": "as §1"}, "[7]": {"molecular_target": "T2, full-length FXR (Homo sapiens, UniProt Q96RI1)", "T2 construct": "The cells were co-transfected with plasmids encoding full-length FXR and the cognate luciferase reporter EcRE-Luc; expressed in transfected cells; host or cells: COS-7", "T2 sequence (Q96RI1 1-486)": "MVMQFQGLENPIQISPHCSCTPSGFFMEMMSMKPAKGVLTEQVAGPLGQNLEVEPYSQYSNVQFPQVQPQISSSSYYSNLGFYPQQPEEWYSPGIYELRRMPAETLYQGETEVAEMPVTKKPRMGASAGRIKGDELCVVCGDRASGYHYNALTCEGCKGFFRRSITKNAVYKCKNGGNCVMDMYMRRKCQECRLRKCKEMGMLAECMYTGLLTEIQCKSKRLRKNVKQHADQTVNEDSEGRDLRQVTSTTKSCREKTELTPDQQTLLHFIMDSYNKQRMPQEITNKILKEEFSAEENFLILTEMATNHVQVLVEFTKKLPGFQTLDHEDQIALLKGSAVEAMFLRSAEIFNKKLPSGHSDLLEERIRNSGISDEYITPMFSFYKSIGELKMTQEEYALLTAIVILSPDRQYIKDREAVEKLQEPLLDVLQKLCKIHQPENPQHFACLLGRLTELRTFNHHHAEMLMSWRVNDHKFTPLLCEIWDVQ", "experiment": "Cell-based FXR transactivation, EcRE luciferase reporter in COS-7 cells", "settings": "Table 2", "procedure": "COS-7 cells were cotransfected with plasmids encoding full length FXR.\nFor transient transfection assay, COS-7 cells were maintained in DMEM containing 10% fetal bovine serum and were transiently transfected using Lipofectamine 2000 (Invitrogen). Before 24 h of transfection, 24-well plates were plated. The cells were co-transfected with plasmids encoding full-length FXR and the cognate luciferase reporter EcRE-Luc. Ligands were added 5 hours after transfection. Cells were harvested 24 hours later for the luciferase assays according to the manufacturer's instructions (Dual-Luciferase® Reporter Assay System, Promega). Luciferase activities were normalized to renilla activity co-transfected as an internal control."}, "[8]": {"tested_on": "human cervical carcinoma Hela cells", "experiment": "MTT cell viability assay, Hela", "type": "cell-based", "settings": "48 h, read-out: Cell viability as a percentage of the cells treated with DMSO, Hela", "excerpt": "as §1"}, "[9]": {"tested_on": "inflammatory cytokines in tissues of db/db mice", "experiment": "Inflammatory cytokine mRNA levels in tissues of high-fat diet fed db/db mice (RT-PCR)", "type": "in vivo, mouse", "settings": "5 mg/kg", "excerpt": "In this example, we detected the levels of various inflammatory cytokines including iNOS, IFNγ, TGFβ, TNFα, COX2, IL-1β, IL-6, SAA1, MIP-1α and CD36 in liver, kidney, white adipose tissue (WAT) in various mice models, including wild type mice treated with APAP in example 4, high-fat diet fed diabetic and obesity db/db and KK-Ay mice in example 5, high-fat diet fed wild-type mice in Example 5, as well as in primary hepatocytes with LPS induced inflammation, using RT-PCR."}}, "note": "Like-named read-outs stand apart in the source and are kept apart here. Marks after values point to notes of the source that are not given here."}
{"smiles": "COc1cc(C(=O)OC2CCC3CCCCC3C2)ccc1N", "note": "(stereo not drawn) [XD-32, decahydro-naphthalen-2-yl 4-amino-3-methoxybenzoate]", "values": [{"measurement": "Serum ALP (U/L)", "setting": "[1]; vehicle 129 ± 15", "value": "83 ± 23^a U/L"}, {"measurement": "Serum ALT (U/L)", "setting": "[1]; vehicle 377 ± 48, Table 17", "value": "110 ± 42^a U/L"}, {"measurement": "EC50", "setting": "[2]; SRC1-2 peptide, read-out: EC50 (μM) of FXR binding by AlphaScreen assay recruit SRC1-2", "value": "< 1", "unit": "µM"}, {"measurement": "EC50", "setting": "[2]; SRC2-3 peptide, read-out: EC50 (μM) of FXR binding by AlphaScreen assay recruit SRC2-3", "value": "< 1", "unit": "µM"}, {"measurement": "viability at 20 µM", "setting": "[3]; 20 uM", "value": "100 ± 7", "unit": "%"}, {"measurement": "viability at 40 µM", "setting": "[3]; 40 uM", "value": "74 ± 7", "unit": "%"}, {"measurement": "viability at 20 µM", "setting": "[4]; HCT-116, 20 uM", "value": "65 ± 7", "unit": "%"}, {"measurement": "viability at 40 µM", "setting": "[4]; HCT-116, 40 uM", "value": "53 ± 7", "unit": "%"}, {"measurement": "viability at 20 µM", "setting": "[5]; HCT-15, 20 uM", "value": "80 ± 7", "unit": "%"}, {"measurement": "viability at 40 µM", "setting": "[5]; HCT-15, 40 uM", "value": "35 ± 7", "unit": "%"}, {"measurement": "viability at 20 µM", "setting": "[6]; 20 uM", "value": "100 ± 7", "unit": "%"}, {"measurement": "viability at 40 µM", "setting": "[6]; 40 uM", "value": "95 ± 7", "unit": "%"}, {"measurement": "Cell-based FXR transactivation Fold changes by 5 μM compound", "setting": "[7]; 5 μM compound, positive: induction, minus: repression", "value": "−5"}, {"measurement": "EC50", "setting": "[7]; EcRE luciferase reporter", "value": "< 1000", "unit": "nM"}, {"measurement": "viability at 20 µM", "setting": "[8]; 20 uM", "value": 73, "unit": "%"}, {"measurement": "viability at 40 µM", "setting": "[8]; 40 uM", "value": "30 ± 7", "unit": "%"}, {"measurement": "mRNA level of iNOS (fold), Liver tissue", "setting": "[9]; vehicle 1.06 ± 0.14", "value": "0.22 ± 0.12^a fold"}, {"measurement": "mRNA level of iNOS (fold), Colon tissue", "setting": "[9]; vehicle 1.12 ± 0.23", "value": "0.45 ± 0.13^a fold"}]}
